This passage reports melting point results from a melting point compilation (Tetko et al.; mined from patent text by program, amines drawn as free bases though some values may be those of a salt).

Take `O=C1CCC(c2ccc(-n3ccnc3)nc2)=NN1`: the melting point – broadly, the temperature, or range, at which the solid turns liquid – was 276 to 278 °C. In the case of `CON(C)C(=O)Nc1ccc(OCCc2ccc(C)cn2)cc1` it was 110 to 112 °C. `Cc1nccn1CCCCc1ccc(OCc2coc(/C=C/c3ccccc3)n2)cc1` showed a melting point of 122 to 123 °C. In the case of `CC(C)(C)OC(=O)c1ccc(N2CC(CN=[N+]=[N-])OC2=O)cc1F` (stereo not given) it was 91 to 92 °C; in that of `NC(=O)c1cnn(-c2ncc(C(F)(F)F)cc2Cl)c1N`, 196 °C. Next, `CC(C)(C)C(=O)OC(COc1cccc2[nH]nnc12)CN1CCC(COc2ccccc2)CC1` (stereo not given): 131 to 133 °C; `CCCc1cc(=O)n(-c2cc(C(=O)OC(C)C)c(Cl)cc2F)c(=O)[nH]1`: 192 to 193 °C; `CCCCC(CC)COC(=O)Nc1ccc(C=C(C#N)C(=O)OCC)cc1` (stereo not given): 105 °C. The compound `Cc1csc2ccc(C(O)=S)cc12` registered a melting point of 205 to 207 °C. In turn, `COc1cc(OC)c2c(=O)[nH]c(-c3cc(C)c(OCCCCN4CCCC4)c(C)c3)nc2c1` had a melting point of 180 to 181 °C. Compound `CN1Cc2c(-c3noc(CCl)n3)ncn2-c2cccc(Cl)c2C1=O` displayed a melting point of 208 to 210 °C.

With `O=C1CCC(N2C(=O)c3cccc(OCc4ccc(CN5CCC(c6ccccc6)CC5)cc4)c3C2=O)C(=O)N1` (stereo not given), the melting point was in the range of 142 to 144 °C. In the case of `CCc1csc2ccc3[nH]c4c(c3c12)CN(C)CC4`, the melting point was in the range of 181 to 182 °C. As to `COc1ccc(NC(=O)Nc2cccc(C(F)(F)F)c2)c(O)n1`, the melting point lay in the range of 223 to 224 °C.

Compound `O=C(OC1CCCCCCC1)c1cc2cc(CCl)ccc2oc1=O` registered a melting point of 169 to 170 °C. Turning to `CCCC(=O)c1cc(OC)c(O)c([N+](=O)[O-])c1`, the melting point was 92 to 93 °C.

The compound `CCC(=O)N1N=C(c2ccc([N+](=O)[O-])cc2)c2cc(Br)ccc2CC1C` (stereo not given) displayed a melting point of 178 to 180 °C.

In turn, `O=C(NCc1ccc(Cl)cc1)c1cn2c3c(cc(CN4CCOCC4)cc3c1=O)CN(Cc1ccccc1)C2` came in with a melting point of 203 to 205 °C. Compound `COc1ccc(-c2nnc(C(Cl)(Cl)Cl)o2)cc1OC` came in with a melting point of 171 to 173 °C. In the case of `COc1ccc(C2(O)CCN(CC(O)c3ccc(OCc4ccccc4)cc3)CC2)cn1` (stereo not given) it was 199 °C.

`Cc1c(O)c(=O)ccn1CCCO` showed a melting point of 111 to 113 °C.

`CNc1nccc(-c2cc(NCCCNCCCOC)c3cc(OC)ccc3c2)n1`: the melting point lay in the range of 130 to 132 °C. In the case of `O=[N+]([O-])c1cccc(-c2ccnc3ccnn23)c1`, the melting point lay within 204 to 206 °C. Next, `CC1C(=S)Nc2c(F)cc(F)cc21` (stereo not given): 151 to 152 °C; `CCCc1c(O)ccc2c(C)c(CC(=O)OC)c(=O)oc12`: 160 to 162 °C; `CCn1ncnc1COc1nn2c(-c3cc(F)ccc3F)nncc2c1C(C)(C)CC`: 85 to 86 °C.

Regarding `COC(=O)c1ccc(-c2nc(-c3ccc(C)cc3)cs2)cc1`, the melting point was 185 to 187 °C.

For `CC(C)(C)OC(=O)N[C@H](CO)Cc1ccc(-c2ccccc2)cc1`, the melting point was 116 °C. Next, `NS(=O)(=O)c1sccc1C(F)=C(F)Cl`: 112 to 116 °C; `Cc1c(Cc2ccc(C(C)C)cc2)c2c(c(C)c1NC(=O)CC(C)(C)C)C(C)(O)C(C)(C)O2` (stereo not given): 170 to 171 °C. The compound `CCCCn1c(=O)c2c(nc(/C=C/c3cc(OC)c(OC)c(OC)c3)n2C)n(CCCC)c1=O` registered a melting point of 137 °C.

For the compound `CN(C)C=Nc1c(C#N)c(=O)n(C)c(=O)n1C`, the melting point is 174 to 175 °C.

With `CC(=O)Nc1cccc(-c2cncnc2)c1`, the melting point was 157 to 158 °C. Take `CCCCOC(=O)COc1ccc(C(=O)Nc2cc(C)ccc2Sc2ccccc2-c2nnn[nH]2)cc1`: the melting point lay within 146 to 148 °C. Next, `COC(=O)/C=C/n1cnc2ccc(OC)cc2c1=O`: 184 to 186 °C; `Cc1cc(Cl)cc2c1OC(C)(C)C(/C=C/C=C/C=C/C(=O)O)=C2`: 190 to 192 °C.

`CCOC(=O)COC1OCC[C@@H]1NC(=O)[C@H](Cc1ccccc1)NC(=O)OCc1ccccc1` (stereo not given in full) yielded a melting point of 103 to 106 °C. As to `c1ccc(COc2ccc(CN(c3ccccc3)c3ccccc3)cc2)cc1`, the melting point lay within 104 to 109 °C. Next, `Cc1cc(N2C(=O)N(CCCCCCCCCSCCCC(F)(F)C(F)(F)F)C(C)(C)C2=O)ccc1NS(N)(=O)=O`: 102 to 104 °C. In the case of `COc1ccc2c(c1)c(-c1cc3c(OC)ccnc3[nH]1)cn2C` it was 288 to 289 °C; in that of `CN(C)CCCCC(=O)NC(Cc1c[nH]c2ccccc12)C(=O)CCc1cc(C(F)(F)F)cc(C(F)(F)F)c1` (stereo not given), 140 °C. Regarding `CC(=O)NC(=O)C(=O)C(C)(C)C`, the melting point was 82 to 84 °C. Compound `O=C(c1ccn2c1CSC2c1cccnc1)c1cn(S(=O)(=O)c2ccccc2)c2cc(-c3ccc(F)cc3)ccc12` (stereo not given) gave a melting point of 115 to 116 °C. Regarding `CC(=O)OCCn1nc(-c2cc(C(C)(C)C)c(O)c(C(C)(C)C)c2)c2ccc(C)nc21`, the melting point was in the range of 102 to 103 °C. In the case of `COc1ccc2c(=O)cc(SC)sc2c1` it was 133 to 135 °C. In the case of `O=[N+]([O-])c1cc(F)ccc1OCCCCl` it was 143 °C. Next, `O=c1oc(-c2ccccc2)cc(O)c1C(Sc1ccccc1)C1CCCCC1` (stereo not given): 87 to 90 °C; `CCOC(=O)c1c(O)c2cc(Cl)ccc2c(=O)n1C`: 110 to 111 °C. In turn, `Cc1cc(C(=O)N(C2CCCCC2)C2CCCC2)ccc1Cn1cnc2cccnc21` gave a melting point of 181 to 182 °C. In the case of `COc1ccc(CNC(=O)c2ccccc2N)cc1` it was 104 to 105 °C. In turn, `O=C(O)CCCCCNC(=O)c1cn2c3c(cccc13)CCC2` registered a melting point of 158 to 161 °C. In the case of `CC(C)C(C)(N)C(N)=O` (single isomer, unassigned; (+)) it was 74.5 to 76 °C; in that of `COC(=O)COc1cccc(NC(=O)NCC(=O)N(CC(=O)OC(C)(C)C)c2ccccc2C(=O)c2ccccc2)c1`, 74 to 77 °C. Next, `CC(=O)OC1CSC(Oc2cncc(-c3cc4ccccc4o3)c2)C(OC(C)=O)C1OC(C)=O` (stereo not given): 125 °C; `CCCCc1nc2cnc3ccccc3c2n1CCCCSc1ccc(F)cc1F`: 122 to 126 °C; `CCOC(=O)C(Cl)=NNc1ccc(Cl)cc1`: 145 to 148 °C.

Compound `NS(=O)(=O)c1ccc(-c2c(-c3ccccc3)noc2CCO)cc1` registered a melting point of 186 to 190 °C. For the compound `O=C(O)Cc1c(C(=O)c2ccc(-c3ccccc3)cc2)[nH]c2cc(Cl)ccc12`, the melting point is 228 to 231 °C. As for `CC(=O)OC1Cc2ccccc2N(C#N)c2ccccc21` (stereo not given), the melting point was in the range of 108 to 119 °C. Next, `C#CCn1c(=O)c2c(nc(C#Cc3cccc(O)c3)n2C)n(C)c1=O`: 271 °C; `N#Cc1c(-c2ccccc2)c(-c2ccccc2)nn(CCCO)c1=O`: 156 to 157 °C.

Regarding `O=C1N(Cc2ccc(C(F)(F)F)o2)c2ccccc2C12COc1ccc(Br)cc12` (stereo not given), the melting point lay in the range of 143 to 145 °C. For the compound `CCOC(=O)c1ccc(C=C(C)c2ccc3c(c2)OCCC3(C)C)cc1`, the melting point is 48 to 50 °C. The compound `COC1(c2cccc3[nH]ccc23)CCNCC1` returned a melting point of 216 °C. On to `ON=CCc1ccc(F)cc1`, for which the melting point lay within 113 to 115 °C. `CCOCc1nc2c(N)nc3ccccc3c2n1CCCCCS(=O)(=O)N(C)C` returned a melting point of 138 to 142 °C. On to `O=C(NC(=O)c1c(F)cccc1F)Nc1cc(C(F)(F)F)ccn1`, for which the melting point is 167 to 169 °C. `CC1CCc2c(Cl)ccc3c(=O)c(C(=O)O)cn1c23` (stereo not given) gave a melting point of 290 to 291 °C. In the case of `CCCCCNC(=O)[C@@H](Cc1ccc(OCC(=O)O)c(C(=O)O)c1)NC(=O)Cc1ccccc1OC` it was 146 to 148 °C; in that of `CCOC(=O)c1c(Sc2ccccc2)cc(C(F)(F)F)nc1C(F)(F)F`, 58 to 61 °C. Next, `Cc1ncn(-c2ccc(C#N)c(F)c2)n1`: 133 to 134 °C; `CCOC(=O)c1sc2nc(SCCCN3CCN(c4ccccn4)CC3)[nH]c(=O)c2c1C`: 160 to 162 °C. In the case of `O=C1CC(CCO)c2ccccc2N1` (stereo not given) it was 119 to 120 °C. With `O=[N+]([O-])c1ccc(-c2cc3c(Oc4ccc(Cl)cc4)cncc3s2)cc1`, the melting point lay in the range of 193 to 195 °C. In the case of `Fc1nc2ccccc2cc1Br` it was 75 to 76 °C; in that of `COc1ccc(C(=O)Nc2ccccc2)cc1CNS(=O)(=O)c1cc(Cl)cc(Cl)c1`, 203 to 206 °C; in that of `NC(=O)c1sc2nccc(NCCCc3ccccc3)c2c1N`, 232 to 234 °C. In turn, `c1ccc2c(c1)CCc1ccccc1C2Nc1ccncc1` yielded a melting point of 263 to 264 °C. Turning to `CCCCCCCCC1OC(=O)c2cc(N)ccc21` (stereo not given), the melting point fell in the range of 124 to 125 °C. Compound `CCOC(=O)C(C)CNc1c(C#N)cnn1-c1c(F)c(F)c(CC)c(F)c1F` (stereo not given) displayed a melting point of 76 to 78 °C. In the case of `CN(C)CCNc1ccc(NCCCCN)c2c1C(=O)c1ccccc1C2=O` it was 88 to 90 °C; in that of `CCOC(=O)C(=O)Nc1c([N+](=O)[O-])cc(C(C)=O)c2c1CCCC2`, 120 to 121 °C. On to `CN(C)S(=O)(=O)N1CCNC1=O`, for which the melting point came out at 129 °C. Take `Cc1ccc(N2CCN([C@@H](Cc3ccc(OCCc4nc(-c5ccccc5)oc4C)c(Br)c3)C(=O)O)CC2)cc1`: the melting point was 203 to 205 °C.

With `CCC(CC)COc1cnc(N)nc1N`, the melting point is 173 to 174 °C. In the case of `NC(=O)Cc1nc(C(=O)c2ccccc2)no1` it was 156 to 158 °C; in that of `COC(=O)Nc1cccc(CC(C)N)c1` (stereo not given), 93 to 95 °C. `CCC(O)(c1cncc(OCc2ccc3ccccc3c2)c1)c1nccs1` (stereo not given) yielded a melting point of 48 to 50 °C. Take `CC(C)c1cccc(C(C)C)c1NC(=O)CN1C(=O)N(c2ccccc2)C2(CCCC2)C1=O`: the melting point is 275 to 277 °C. In the case of `CS(=O)(=O)C1CC(=O)N1CC(=O)OCc1ccccc1` (single isomer, unassigned; (+)) it was 102 to 103 °C.
